Data as given in patent US11718628B2, “SREBP inhibitors comprising a 6-membered central ring” (Capulus Therapeutics, LLC, priority 2018, dated 2023).
Where two headings read alike, the source gives them in different places. Each block holds one compound with its values, some of them ahead of it.

Assays:
[1] = In vivo pharmacokinetic properties in rats (IV and PO); design: species or system male Sprague Dawley rats
Method in brief: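 Male Sprague Dawley rats received 2.00 mg/kg IV via the tail vein, with plasma sampled from a cannulated jugular vein from 0.083 to 24 h. Oral dosing was 10 mg/kg in rats or C57BL/6J mice, sampled at 0.25-24 h by jugular cannula (rats) or retro-orbital plexus (mice).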

[2] = Plasma and liver compound levels in mice after oral administration; type: in vivo; details: 30 mpk
Description: (§1) The pharmacodynamic properties of selected compounds were evaluated in mice. The animals were housed in cages with clean bedding, and maintained and monitored for good health in accordance with Test Facility SOPs and at the discretion of the laboratory animal veterinarian. Certified rodent diet was provided. Food and water was available ad libitum. Environmental controls for the animal room were set to maintain a temperature of 22° C. to 25° C., humidity of 40-70% RH, and a 12-hour light/[…]. Normal healthy animals certified by the attending veterinarian were selected and acclimatized for minimum three days prior to initiation of study. Animals were identified with body markings.
(§2) Aliquots of the compounds being evaluated were weighed and triturated with 0.5% methylcellulose (with the addition of 5% N-methyl pyrrolidone when required to remove clumping, as for Z-806) to an appropriate dose concentration. Vials were labeled with the information about study number, test item, concentration and date of preparation. A description of appearance of formulation was recorded (e.g., color, turbidity, etc.). The composition of formulation vehicle was recorded. An aliquot of each dose solution was taken before the dosing began and after dosing was finished, and stored at approximately −20° C. or below for subsequent analysis. The animals were dosed orally through oral gavage needle, and time of dosing was recorded.
After dosing, the mice were anesthetized using gaseous anesthesia. Blood samples were collected through a capillary, guided in retro-orbital plexus, at 6 h or at 24 h. Approximately 100 uL of blood was collected from each mouse, in pre-labeled tubes. The collected blood was stored on ice prior to centrifugation. Blood samples were then centrifuged within 1 hour of collection to separate plasma. Centrifugation was conducted at 2500×g for 15 minutes at 4° C. The plasma was separated and transferred to pre-labeled micro-centrifuge tubes and promptly frozen at −80±10° C. until bioanalysis.
(§3) Liver Collection at 6 h or 24 h: Immediately after blood withdrawal for pharmacokinetic evaluation (at 6 or at 24 h), liver tissue was collected without perfusion. Animals were euthanized using carbon dioxide gas in a CO2 chamber. The whole blood was drained by cutting the both side jugular vein and abdominal aorta. The liver was separated out. All the liver samples were divided in two parts. The first part (200 mg approx.) was snap frozen using liquid nitrogen as soon as possible. These samples were immediately transferred to −80° C. for storage. The remaining part was weighed and used for bioanalysis.

[3] = Log D by octanol/aqueous buffer partitioning; type: physicochemical; details: pH 7.4, 1-octanol/buffer
Description: The Log D of selected compounds was evaluated by octanol/aqueous buffer partitioning. 500 μL of organic phase (1-octanol) was added to each well of a 2 mL deep well plate, followed by 500 μL of buffer and 15 μL of test compound in DMSO (0.15 mM). The plate was vortexed for 10 seconds and incubated at room temperature for 1 hr on a plate shaker at 200 rpm. After incubation, the samples were allowed to equilibrate for 20 min and then centrifuged at 4000 rpm for 30 min for complete phase separation. The distribution of test compound in buffer and octanol phase was analyzed by HPLC-UV. Log D=Log (Area of Octanol/Area of Buffer).

[4] = test system: liver gene expression (ACACA, ACLY, FASN, LSS, PNPLA3); assay: Liver gene expression in mice after oral administration; type: in vivo; details: 30 mpk, vs vehicle
Description: as §1, §2, §3
RNA Processing and Gene Expression Analysis: Liver Tissue RNA was harvested with the RNEasy kit and 20-100 ng used to synthesize cDNA with random primers following the manufacturer's protocol. Quantitative PCR was performed on 1 pg to 100 ng cDNA for the following genes: ACACA, ACLY, FASN, LSS, PNPLA3. Gene expression levels were determined using ΔΔCT method comparing treated to vehicle treated samples as a baseline, and fold change calculated. The average value for all 5 genes above was averaged and termed to Total Fold Change The results from this evaluation are presented in Table 8.

[5] = In vivo pharmacokinetic properties in mice (IV and PO); design: species or system C57BL/6J mice; details: mouse, in vivo
Method in brief: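 Male C57BL/6J mice received 10 mg/kg orally; plasma sampled by retro-orbital capillary at 0.25–24 h. IV dosing described at 2.00 mg/kg via tail vein, plasma sampled 0.083–24 h.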

- melting point: 100 to 104 °C
- AUC(0-t) ([1]; male, Sprague Dawley, rat, plasma, 10 mg/kg, heading: Oral Administration AUC0-last, PO, 10 mg/kg): 151 ng·h/mL
- AUC(0-t) ([1]; male, Sprague Dawley, rat, plasma, IV, 2 mg/kg, read-out: Intravenous Delivery (IV) AUC0-last): 1070 ng·h/mL
- clearance ([1]; male, Sprague Dawley, rat, plasma, IV, 2 mg/kg, read-out: Intravenous Delivery (IV) CL): 31.7 mL/min/kg
- half-life ([1]; male, Sprague Dawley, rat, plasma, IV, 2 mg/kg, read-out: Intravenous Delivery (IV) T1/2 (converted)): 54.6 min
- Vd ([1]; male, Sprague Dawley, rat, plasma, IV, 2 mg/kg, read-out: Intravenous Delivery (IV) Vd): 2.54 L/kg
- bioavailability ([1]; male, Sprague Dawley, rat, plasma, PO 10 mg/kg vs IV 2 mg/kg, read-out: % F (Bioavailability of oral delivery)): 2.8%
- half-life ([1]; male, Sprague Dawley, rat, plasma, PO, 10 mg/kg, read-out: Oral Administration (PO) T1/2 (converted)): 41.4 min
- Tmax ([1]; male, Sprague Dawley, rat, plasma, PO, 10 mg/kg, read-out: Oral Administration (PO) Tmax): 30 min
Structure (SMILES): CC(C)(C)c1cc(-c2cncc(-c3ccc(C(=O)N4CCC(O)CC4)cc3)c2F)ccn1 [Compound Z-866, (4-(2′-(tert-butyl)-4-fluoro-[3,4′-bipyridin]-5-yl)phenyl)(4-hydroxypiperidin-1-yl)methanone]

- melting point: 105 to 109 °C
Structure (SMILES): COc1c(-c2ccnc(C(C)(C)C)c2)cncc1-c1ccc(C(=O)N2CCC(O)CC2)cc1Cl [Compound Z-840, (4-(2′-(tert-butyl)-4-methoxy-[3,4′-bipyridin]-5-yl)-3-chlorophenyl)(4-hydroxypiperidin-1-yl)methanone]

Structure (SMILES): CC(C)OC(=O)Nc1ccc(-c2cncc(-c3ccnc(C(C)(C)C)c3)c2)c(Cl)c1 [Compound Z-774]
- Liver ng/mg (6 h) ([2]; 6 h): >1000 ng/mg
- Plasma ng/mL (6 h) ([2]; 6 h): 100 to 1000 ng/mL
- Liver ng/mg 24 h ([2]; 24 h): >1000 ng/mg
- Plasma ng/mL (24 h) ([2]; 24 h): 100 to 1000 ng/mL
- LogD [3]: 4.12
- Total Gene FC Time (6 h) ([4]; 6 h): ++ (0.51-0.7509 = ++)
- Total Gene FC Time (24 h) ([4]; 24 h): +++ (0-0.509 = +++)
- % F (Bioavailability of oral delivery) [5]: 16%
- Intravenous Delivery (IV) AUC0-last ([5]; iv, 2 mg/kg): 1780 ng·h/mL
- Intravenous Delivery (IV) CL ([5]; iv, 2 mg/kg): 18.5 mL/min/kg
- Intravenous Delivery (IV) T1/2 ([5]; iv, 2 mg/kg): 319 min
- Intravenous Delivery (IV) Vd ([5]; iv, 2 mg/kg): 8.51 L/kg
- Oral Administration (PO) AUC0-last ([5]; po, 10 mg/kg): 1380 ng·h/mL
- Oral Administration (PO) T1/2 ([5]; po, 10 mg/kg): 407 min
- Oral Administration (PO) Tmax ([5]; po, 10 mg/kg): 30 min
- Intravenous Delivery (IV) CL ([1]; IV, 2 mg/kg): 15.7 mL/min/kg
- Intravenous Delivery (IV) T1/2 ([1]; IV, 2 mg/kg): 355 min
- Intravenous Delivery (IV) Vd ([1]; IV, 2 mg/kg): 7.97 L/kg
- % F (Bioavailability of oral delivery) ([1]; PO 10 mg/kg vs IV 2 mg/kg): 5.8%
- Oral Administration (PO) AUC0-last ([1]; PO, 10 mg/kg): 604
- Oral Administration (PO) T1/2 ([1]; PO, 10 mg/kg): 224 min
- Oral Administration (PO) Tmax ([1]; PO, 10 mg/kg): 20 min
